The results in this text go back to patent publication US7776826B2, “Method for fostering bone formation and preservation” (Unigene Laboratories, Inc., priority 2004, dated 2010).

The test system of assay [1] is Male Sprague-Dawley rats. Put plainly: Serum osteocalcin concentration on day of sacrifice, Groups A-J. The format is in vivo, rat. The note with it: bmx rats; for serum osteocalcin level, in words: up to 21 days; for Osteocalcin mean: serum. The text has this:
FIG. 5 provides a series of measurements of the serum osteocalcin concentration (in ng/ml) in the blood of the rats which are the subjects of FIGS. 3-4 on the day of sacrifice. The meaning of the abbreviations is the same as that in FIGS. 3-4;
FIG. 5 provides a graphical representation of the osteocalcin levels determined, at the time of sacrifice, in the serum of rats subjected to the following treatment modalities: bmx+PBS; bmx+ parathyroid hormone (PTH[1-34]-NH2); bmx+salmon calcitonin (CT); and bmx+ parathyroid hormone (PTH[1-34]-NH2)+CT. It is well known by those of ordinary skill in this art that osteocalcin is a biochemical marker related to the number of osteoblasts, i.e, a measure of new bone growth, which may be measured in the blood serum of the animal. […] That is, administering CT reduces the rate of bone turn-over.
Table 4 additionally provides the standard deviations for the values obtained during each of the indicated analyses, which standard deviations are also indicated in FIG. 5.
On the day of sacrifice, each rat was euthanized in a CO2 chamber. The rat's blood was then collected via a cardiac puncture. The femurs were removed and fixed in a 4% formalin solution, after which they were dehydrated in a graded series of ethanol solutions.
The bones were thereafter subjected to a variety of sample analysis techniques. These included X-ray analysis wherein the femurs were X-rayed in individually sealed plastic bags; PIXIMUS analysis using a Lunar PIXIMUS scanner to measure bone mineral density in the bone marrow cavity of the femurs; MicroCT analysis; and blood analysis for osteocalcin, PTH, CT, NTX and growth factors.

For assay [2], the system named is Male Sprague-Dawley rats. In words: pQCT analysis of left (ablated) and right (non-ablated) femoral shafts, Groups A-J. The format is in vivo, rat. The note with it: for Left femoral shaft Total density mean / Left femoral shaft Trabecular density mean: ablated femur; for new trabecular bone formation in left femoral shaft, in words: bmx, pQCT; for Right femoral shaft Total density mean / Right femoral shaft Trabecular density mean: non-ablated femur (bmx on contralateral left femur). The source says:
FIG. 4 (a-d) are graphical representations of the results of Peripheral Quantitative Computerized Tomography (PQCT) analyses of, respectively, the left (ablated) and right (non-ablated) femoral shafts of the rats which are the subject of FIG. 3 above. FIGS. 4(a) and 4(b) illustrate the trabecular bone density observed in respectively, the left and right femoral shafts of these rats, whereas, FIGS. 4(c) and 4(d) illustrate the total bone density of the respective shafts. The meanings of the abbreviations used in FIGS. 4a-4d are identical to those described above with regard to FIG. 3 (a-e);
All of the data presented above are based on analyses carried out solely of the distal epiphysis portion of the rat femurs. Subsequently, however, to avoid the above-described drawbacks associated with reading the bone density at the level of the epiphysis, the inventors undertook to further analyze the remaining portions of the animals' femur bones and particularly, areas along the length of the cortical shaft. […] In the discussion which follows, directed to the results of these additional analyses, the reader is reminded that the bone marrow ablation (bmx) technique was practiced, in all cases, only on the left femur of the test animals. That is to say, there was no ablation of the marrow portion in the right femur. Thus, in the right femur views discussed below, wherein the illustration or graph relating to the right femur is labeled with the abbreviation “bmx”, etc. to describe the modality of treatment which the rat was subjected to, one should understand such labeling to mean that the view is of a right femur, or is of a graph which presents a value obtained pursuant to the analysis of such right femur, wherein the animal's corresponding left femur underwent a bone marrow ablation treatment in the manner described herein.
FIG. 4 (a-d) graphically illustrate the formation of both trabecular bone and, to some extent, total bone, within the left femoral shaft in rats from the Groups described in Tables 1 and/or 2 above, wherein the left femur was subjected to a bmx (bone marrow ablation) treatment coupled with a concurrent and/or subsequent administration of one or more bone anabolic agents, including parathyroid hormone (PTH[1-34]-NH2) and one or more anti-resorptive agents such as salmon calcitonin. […] The effects of these last two combinations protects the significant initial bone formation induced by bmx, but not to the same extent as parathyroid hormone (PTH[1-34]-NH2) alone.
FIGS. 4(b) and 4(d) are provided to illustrate the results obtained with the same animals' corresponding right femoral shafts, i.e, in which bone marrow ablation (bmx) was not performed. Little or no new bone formation was observed, i.e, the density remained substantially constant, since the only treatment received by the right femurs was due to the systemic administration of the bone anabolic agent. The agent(s) was administered for too short a period to have, by itself, any real positive effect on the bone density. In fact, the total bone density curve for the right femoral shaft presents a substantially straight line, which is attributable to the fact that the total density measurement includes a measurement of cortical bone. Furthermore, since the anabolic agent was not administered for a period sufficient to increase cortical bone density, the total density remained unchanged.
The table additionally includes the standard deviations (“sd”) for the values obtained for each analysis, which standard deviations are also indicated in FIG. 4 (a-d).
The results set forth in FIGS. 1, 2, 4, 5, 11 and 12 and the corresponding Tables, Nos. 1, 2, 3, 4, 5 and 6 discussed above were obtained with the use of a method for mechanically inducing increased osteoblast activity as illustrated in FIGS. 14A-14D. […]

On to PTH[1-34]-NH2, for which the “serum osteocalcin level, in words” value in the assay with Male Sprague-Dawley rats [1] was “highest and most consistent level of osteocalcin”. Further, the Osteocalcin mean in the assay with Male Sprague-Dawley rats [1] (Day 0) was found to be 108.2 ng/mL; in the assay with Male Sprague-Dawley rats [1] (Day 7), 125.5 ng/mL; with Male Sprague-Dawley rats [1] (Day 14) it was 125.4 ng/mL; in the assay on Male Sprague-Dawley rats [1] (Day 21) it was 117.8 ng/mL. The “Left femoral shaft Total density mean” value was found to be 726.1 mg/mL in the assay with Male Sprague-Dawley rats [2] (Day 0), 867.5 mg/mL in the assay on Male Sprague-Dawley rats [2] (Day 7), 968.7 mg/mL in the assay with Male Sprague-Dawley rats [2] (Day 14) and 1046.7 mg/mL in the assay with Male Sprague-Dawley rats [2] (Day 21). Also, the “Left femoral shaft Trabecular density mean” value in the assay with Male Sprague-Dawley rats [2] (Day 0) is 21.4 mg/mL; in the assay on Male Sprague-Dawley rats [2] (Day 7) it was 243.8 mg/mL; in the assay with Male Sprague-Dawley rats [2] (Day 14), 465.4 mg/mL; in the assay on Male Sprague-Dawley rats [2] (Day 21), 511.2 mg/mL. Moreover, in the assay with Male Sprague-Dawley rats [2], the “new trabecular bone formation in left femoral shaft, in words” value was “greatest formation of new trabecular bone”. The “Right femoral shaft Total density mean” value in the assay with Male Sprague-Dawley rats [2] (Day 0) came to 787.2 mg/mL; in the assay on Male Sprague-Dawley rats [2] (Day 7), 848.2 mg/mL; with Male Sprague-Dawley rats [2] (Day 14) it was 871 mg/mL; in the assay on Male Sprague-Dawley rats [2] (Day 21) it was 864.8 mg/mL. The “Right femoral shaft Trabecular density mean” value turned out to be 12.9 mg/mL in the assay on Male Sprague-Dawley rats [2] (Day 0), 1.5 mg/mL in the assay on Male Sprague-Dawley rats [2] (Day 7), 13.7 mg/mL in the assay with Male Sprague-Dawley rats [2] (Day 14) and 10.7 mg/mL with Male Sprague-Dawley rats [2] (Day 21).
For the substance “salmon calcitonin [CT, reference compound]”, the “serum osteocalcin level, in words” value in the assay on Male Sprague-Dawley rats [1] was “relatively steady state value of osteocalcin”. Also, the Osteocalcin mean was 108.2 ng/mL with Male Sprague-Dawley rats [1] (Day 0), 100.5 ng/mL in the assay on Male Sprague-Dawley rats [1] (Day 7), 101 ng/mL with Male Sprague-Dawley rats [1] (Day 14) and 69.5 ng/mL in the assay on Male Sprague-Dawley rats [1] (Day 21). Besides, the “Left femoral shaft Total density mean” value in the assay with Male Sprague-Dawley rats [2] (Day 0) was 726.1 mg/mL; in the assay with Male Sprague-Dawley rats [2] (Day 7) it was 833.6 mg/mL; in the assay on Male Sprague-Dawley rats [2] (Day 14) it was 876.2 mg/mL; with Male Sprague-Dawley rats [2] (Day 21), 833.2 mg/mL. For the same substance, the “Left femoral shaft Trabecular density mean” value with Male Sprague-Dawley rats [2] (Day 0) turned out to be 21.4 mg/mL; in the assay with Male Sprague-Dawley rats [2] (Day 7), 232.2 mg/mL; in the assay with Male Sprague-Dawley rats [2] (Day 14), 257 mg/mL; in the assay on Male Sprague-Dawley rats [2] (Day 21), 163.5 mg/mL. In the assay on Male Sprague-Dawley rats [2], the “new trabecular bone formation in left femoral shaft, in words” value is given as “Beneficial results”. The “Right femoral shaft Total density mean” value is 787.2 mg/mL with Male Sprague-Dawley rats [2] (Day 0), 797.4 mg/mL with Male Sprague-Dawley rats [2] (Day 7), 821.9 mg/mL in the assay with Male Sprague-Dawley rats [2] (Day 14) and 821.3 mg/mL in the assay on Male Sprague-Dawley rats [2] (Day 21). The “Right femoral shaft Trabecular density mean” value worked out at 12.9 mg/mL in the assay on Male Sprague-Dawley rats [2] (Day 0), 1.2 mg/mL in the assay with Male Sprague-Dawley rats [2] (Day 7), 10.9 mg/mL with Male Sprague-Dawley rats [2] (Day 14) and 10.8 mg/mL with Male Sprague-Dawley rats [2] (Day 21).
